This test can be described thus: TES1-eGFP NF-kB reporter inhibition versus Tet-On dsRED, dose response, selectivity assay for LMP1 NF-kB inhibitor project, imaging, HEK293T, dual-color eGFP/dsRED, cherry-picks (AID 588398). Particulars: 48 h, dsRED channel counter-screen.

Records with an inconclusive call do not appear.

The AC50 is the concentration giving half of the maximal activity seen. A high value points to activity only at high concentration.

In turn, `CCN1CCN(Cc2ccc(NC(=O)c3ccc(C)c(NC(=O)c4ccno4)c3)cc2C(F)(F)F)CC1` displayed an AC50 of 0.0579 µM. That is a double-digit nanomolar value.
`O=C(N/N=C/c1cc2c3c(c1O)CCCN3CCC2)c1ccccc1O`: the AC50 amounted to 8.25 µM.

Source of the values: PubChem BioAssay AID588398 (Broad Institute, 2011).
